Reference: patent publication US20010046497A1, “G-protein coupled receptor and methods” (priority 2000, published 2001)

Key:
Assay type in all cases: cell-based
SP168 receptor [1] = target: T1, SP168 receptor (Homo sapiens, UniProt Q9H244); assay: FLIPR Ca2+ assay, SP168 co-transfected with Gq/i3 in NIH3T3 cells (agonists); set-up: expressed in transfected cells; host or cells: NIH3T3 cells, co-transfected with Gq/i3; conditions: for EC50: FLIPR, peak Ca2+ increment, SP168 + Gq/i3 transfected cells
Method: (§1) In order to identify SP168 receptor ligands the SP168 open reading frame was subcloned into the pcDNA3.1 expression vector under the control of the CMV promoter and transfected into mammalian cells. After allowing two days for receptor expression, the transfected cells were seeded into 96 well plates, loaded with the Ca^2+ sensitive Fluo-3AM dye and challenged with various compounds. The peak increments in Ca^2+ evoked by the test compounds were measured using the Fluorometric Inaging Plate Reader (FLIPR) system. The endogenous ligand of the SP168 receptor was purified from rat spinal cords using a series of chromatography steps and its structure was identified as being ADP by Mass spectroscopy. […] In addition to ADP, other agonists were also identified for SP168.
SP168 receptor cDNA was subdloned into the pcDNA3.1 expression vector (Invitrogen) and transiently co-transfected with chimera G protein Gq/i3 into CHO-DHFR^− (ATCC CRL-9096) cells using lipofectamine (Gibco- BRL). Chimera G protein Gq/i3 was constructed by replacing the C-terminus five amino acid residues of human Gqa with the five amino acid residue of human Gi3a (Conklin et al., Nature, 363, p274-276). pCDNA 3.1 vector DNA was also co-transfected with chimera G protein Gq/i3 as a negative control. The transfected cells were seeded into 96 well plates and incubated overnight at 37° C. in a tissue culture incubator. The growth medium was aspirated and replaced with 100 μl of loading medium (DMEM containing 1% FBS, […] Fluo-3-AM/10% pluronic acid and 2.5 mM Probenecid) and incubated for 1 hour at 37° C. The cells were subsequently washed 3 times with Hank's BSS buffer containing 20 mM HEPES, 2.5 mM Probenecid, and 0.1% BSA using the gentle setting in a Denley cell washer (Denley Instruments). The washed cells were placed in a Fluorometric Imaging Plate Reader (FLIPR) and changes in cellular fluorescence recorded after the addition of various dilutions of tissue extract fractions.
(§2) Pharmacology of SP168—The pharmacological profile of SP168 was fuirther characterized by using the FLIPR and cAMP assays. SP168 was co-transfected with Gq/i3 to NIH3T3 cells, and a variety of nucleotides were screened by the FLIPR assay. […] EC50 for background ATP was about 1600 rLM, which was similar to 2-C1-ATP but was 20 fold higher than ADP. Therefore, even if ATP was included, the order of agonist potency was 2-MeS-ATP=2-MeS-ADP>ADP=ADPPS>ATPyS=ATP.

NIH3T3 = assay: FLIPR assay, background response of NIH3T3 cells; conditions: fold higher than ADP
Excerpt: as §2

SP168 receptor [2] = target: T1, SP168 receptor; assay: cAMP assay (inhibition of adenylyl cyclase); set-up: expressed in transfected cells; conditions: adenylyl cyclase / cAMP pathway
Method: as §1
The SP168 receptor cDNA was stably transfected into CHO-DHFR cells according standard procedures. The SP168 receptor stable cell line and wild type cell grown on 12-well plates were incubated for 2 hr with […] of medium plus 5 μCi of [3H]adenine/ml. Then 50 μl of Hepes (250 mM, pH 7.5, 50 μM Forskolin, 200 μM IBMX) with the compound to be screened was added to the cells and incubated for 10 minutes at 37 ° C. Incubations were terminated by addition of 0.8 ml of 5% trichloroacetic acid. [^3H]cAMP was purified using Dowex and alumina chromatography as previously described (Harden et al., Mol. Pharmacol. 21:570-580, 1982).

T1 sequence (Q9H244 whole entry): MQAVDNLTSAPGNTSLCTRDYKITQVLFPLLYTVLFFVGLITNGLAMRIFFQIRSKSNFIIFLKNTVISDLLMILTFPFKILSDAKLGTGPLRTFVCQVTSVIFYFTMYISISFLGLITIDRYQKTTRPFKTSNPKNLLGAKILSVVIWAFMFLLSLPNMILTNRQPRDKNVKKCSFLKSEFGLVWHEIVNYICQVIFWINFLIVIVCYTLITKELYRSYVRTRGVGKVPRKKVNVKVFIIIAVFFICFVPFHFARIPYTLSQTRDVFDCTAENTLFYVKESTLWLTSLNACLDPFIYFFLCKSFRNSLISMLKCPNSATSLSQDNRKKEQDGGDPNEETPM

Row | SMILES | EC50 (SP168 receptor [1]) | further results
1 | CSc1nc(N)c2ncn([C@@H]3O[C@H](COP(=O)(O)OP(=O)(O)O)[C@@H](O)[C@H]3O)c2n1 [2-MeS-ADP] | 2.3 nM | 
2 | Nc1ncnc2c1ncn2[C@@H]1O[C@H](COP(=O)(O)OP(=O)(O)OP(=O)(O)O)[C@@H](O)[C@H]1O [ATP] |  | EC50 of background ATP relative to ADP (NIH3T3): 20 fold; shift of dosage curve by SP168 transfection (SP168 receptor [1]; NIH3T3, FLIPR): did not induce the shift of dosage curve
3 | Nc1nc(Cl)nc2c1ncn2[C@@H]1O[C@H](COP(=O)(O)OP(=O)(O)OP(=O)(O)O)[C@@H](O)[C@H]1O [2-Cl-ATP] | 470 nM | 
4 | Nc1ncnc2c1ncn2[C@@H]1O[C@H](COP(=O)(O)OP(O)(O)=S)[C@@H](O)[C@H]1O [ADPβS] | 89 nM | 
5 | CSc1nc(N)c2ncn([C@@H]3O[C@H](COP(=O)(O)OP(=O)(O)OP(=O)(O)O)[C@@H](O)[C@H]3O)c2n1 [2-MeS-ATP] | 3.4 nM | 
6 | Nc1ncnc2c1ncn2[C@@H]1O[C@H](COP(=O)(O)OP(=O)(O)O)[C@@H](O)[C@H]1O [ADP, 5′-adenosine diphosphate] | 74 nM | activation of the SP168 receptor (SP168 receptor [2]): activate the SP168 receptor through inhibition of adenylyl cyclase
7 | Nc1ncnc2c1ncn2[C@@H]1O[C@H](COP(=O)(O)OP(=O)(O)OP(O)(O)=S)[C@@H](O)[C@H]1O [ATPγS] | 1200 nM | 
